# Source: PMC11881906, “Development of xanthone derivatives as effective broad-spectrum antimicrobials: Disrupting cell wall and inhibiting DNA synthesis” (Science Advances, 2025)
# Where two headings read alike, the source gives them in different places.
# Tests used:
# [1] = CCK-8 cytotoxicity assay; assay type: cell-based
# Method: Cytotoxicity of the compound tested was assessed by CCK-8 assays as previously described ([71]). […] Following a 24-hour incubation, 10 μl of CCK-8 reagent was added to each well and incubated for 1 hour. The absorbance at 450 nm was measured by a microplate reader. All measurements were repeated three times with duplicates each time.
# [2] = system: E. coli ATCC 25922; assay: RNA-seq transcriptome response; assay type: cell-based, Escherichia coli; settings: 4× MIC, 2 hours
# Method: After exposure, 1-ml aliquots of cells were immediately pelleted at 4°C by centrifugation for 2 min at 2000 rpm. The supernatants were removed and immediately frozen in liquid nitrogen. The samples were stored at −80°C for later total RNA isolation. Total RNA was extracted using the bacterial RNA kit (Omega Bio-Tek, USA) according to the manufacturer’s instructions. The RNA integrity number values were obtained to assess RNA quality using an Agilent Genomics 2200 Tape Station instrument.
# A total amount of 2 to 5 ng of the RNA per sample was executed as the input material to construct each cDNA library for RNA-seq using the NEBNext Ultra Directional RNA Library prep kit from Illumina. The quality of the resulting libraries was checked using Agilent High Sensitivity DNA chips to ensure proper library size distribution and the absence of small adapters.
# Read mapping was aligned using Bowtie2 ([74]). HTSeq v0.6.1 was used for quantification of expression levels ([75]). DESeq2 on the R package (v1.12.4) was used to calculate DEGs. Differential expression was computed using edgeR: exactTest for each treatment versus the untreated control ([76]). The E. coli database used for mapping was GCF_017357505.1_ASM1735750v1_genomic.fna. Both the GO and KEGG (KEGG Ortholog database) enrichment analyses were done with the Fisher’s exact test. All P values were adjusted with the Benjamini-Hochberg procedure to generate false discovery rates (adjusted P values). GO enrichment analysis was carried out using the clusterProfiler package on the R platform ([77]). KEGG pathway mapping and figure generation were performed with the PathView website ([78]). COG of protein databases were searched with an E value of 1e^-5. For hierarchal clustering analysis of gene expression, the gene expression levels were normalized to z scores of log10 (FPKM + 1), where FPKM is fragments per kilobase per million. For hierarchal clustering analysis of the regulation of transcription factors, the unweighted pair group method with arithmetic mean (UPGMA) method was used as the clustering method. […] Volcano plots were generated by plot_volcano from soothsayer (https://github.com/jolespin/soothsayer) in Python v.3.6.6. Directed networks were constructed and plotted using NetworkX and Matplotlib Python packages, respectively. Hierarchical clustering analysis and heatmap calculation were performed with the pheatmap package on the R platform. The umap package on the R platform was used for uniform manifold approximation and projection (UMAP) analysis of FPKM vectors of each transcriptome. The figures were created via the ggplot2 package ([79]).
# [3] = molecular target: T1, E. coli DNA gyrase (Escherichia coli, UniProt P0AES4+P0AES6); assay: DNA gyrase supercoiling inhibition assay; assay type: biochemical
# T1 construct: purchased ProFoldin (Worcester, MA)
# T1 sequence (P0AES4 whole entry, one chain of several): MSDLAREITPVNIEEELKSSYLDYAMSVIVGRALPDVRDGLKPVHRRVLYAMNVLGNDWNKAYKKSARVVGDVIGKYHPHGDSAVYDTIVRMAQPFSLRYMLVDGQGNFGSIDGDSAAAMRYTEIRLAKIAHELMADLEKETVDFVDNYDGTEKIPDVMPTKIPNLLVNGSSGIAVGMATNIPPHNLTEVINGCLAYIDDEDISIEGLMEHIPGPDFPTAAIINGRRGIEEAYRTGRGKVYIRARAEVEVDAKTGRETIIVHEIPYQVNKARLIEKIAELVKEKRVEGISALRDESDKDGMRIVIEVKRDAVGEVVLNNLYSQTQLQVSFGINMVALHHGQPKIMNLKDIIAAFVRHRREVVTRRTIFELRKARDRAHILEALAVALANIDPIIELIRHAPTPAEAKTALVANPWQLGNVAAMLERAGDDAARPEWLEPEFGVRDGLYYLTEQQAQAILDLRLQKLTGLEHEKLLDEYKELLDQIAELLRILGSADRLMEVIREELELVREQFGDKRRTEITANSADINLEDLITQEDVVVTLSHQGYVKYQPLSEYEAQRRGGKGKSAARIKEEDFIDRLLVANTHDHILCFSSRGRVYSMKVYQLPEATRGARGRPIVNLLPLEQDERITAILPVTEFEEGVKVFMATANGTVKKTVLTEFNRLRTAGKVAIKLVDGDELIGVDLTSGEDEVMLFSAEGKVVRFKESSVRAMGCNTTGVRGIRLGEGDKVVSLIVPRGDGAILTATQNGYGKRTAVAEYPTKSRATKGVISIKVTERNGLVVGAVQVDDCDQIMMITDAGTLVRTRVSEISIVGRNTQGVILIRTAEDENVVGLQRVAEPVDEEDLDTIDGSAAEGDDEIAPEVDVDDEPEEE
# Method: E. coli topoisomerase enzymes (II and IV) were supplied by ProFoldin (Worcester, MA), and assays were performed according to the manufacturer’s instructions. Briefly, the DNA supercoiling assay was conducted in a volume of 40 μl containing 24 μl of H2O, 4 μl of 10× buffer, 4 μl of 10× relaxed DNA, 4 μl of 10× enzyme, and 4 μl of 10 mM adenosine triphosphate (ATP). Following a 60-min incubation at room temperature, 200 μl of H2O was added to each reaction mixture. Topoisomerase IV decatenation inhibition assay was conducted in a volume of 50 μl containing 38.5 μl of H2O, 5 μl of 10× buffer, 5 μl of 10× concatenated DNA, 0.5 μl of 100× enzyme, and 1 μl of 10 mM ATP. After 60 min of incubation at 37°C, 5 μl of 0.4 M EDTA was added to stop the reaction. […]
# In the supercoiling inhibition assay, the fluorescence intensity was measured using freshly prepared 1× H19 dye, which was prepared by diluting 100× H19 dye with 10 mM tris-HCl and 10 mM NaCl (pH 7.0). […] In the decatenation inhibition assay, the change in fluorescence intensity was monitored using the 1× fluorescence dye after diluting the 20× dye with water. The reaction solution eluted from the column was mixed with 150 μl of 1× fluorescence dye. The fluorescence intensity for both assays was lastly detected at 535 nm using an excitation wavelength of 485 nm. […]
# [4] = for the free guanidine group, not the whole compound; cited from earlier work
# [5] = human, HepG2 cells, read-out: Viable cells (%) HepG2 cells
# [6] = mouse, NCTC clone 929 fibroblast cells, read-out: %Viable cells NCTC clone 929 cells
compound,measurement,setting,value
CC(C)=CCOc1cc(OCCCNC(=N)N)cc2oc3cc(OCCCNC(=N)N)ccc3c(=O)c12 [XT17],"viability at 24 h, 3.125 μg/ml",[1]; [5],105%
same,"viability at 24 h, 6.25 μg/ml",[1]; [5],110%
same,"viability at 24 h, 12.5 μg/ml",[1]; [5],104%
same,"viability at 24 h, 25 μg/ml",[1]; [5],83.9%
same,"viability at 24 h, 50 μg/ml",[1]; [5],62.2 ± 8.01%
same,"viability at 24 h, 100 μg/ml",[1]; [5],40.6%
same,"viability at 24 h, 3.125 μg/ml",[1]; [6],90%
same,"viability at 24 h, 6.25 μg/ml",[1]; [6],87.9%
same,"viability at 24 h, 12.5 μg/ml",[1]; [6],87.7%
same,"viability at 24 h, 25 μg/ml",[1]; [6],78.9 ± 3.46%
same,"viability at 24 h, 50 μg/ml",[1]; [6],51.6 ± 2.46%
same,"viability at 24 h, 100 μg/ml",[1]; [6],8.16%
same,genes expressed,[2],4617 genes
same,Log2FC clbN (colibactin non-ribosomal peptide synthetase ClbN),[2]; vs untreated,-2.7305
same,Log2FC cspE (transcription antiterminator/RNA stability regulator CspE),[2]; vs untreated,-4.5456
same,Log2FC dnaE (DNA polymerase III subunit alpha),[2]; vs untreated,2.4033
same,Log2FC dnaN (DNA polymerase III subunit beta),[2]; vs untreated,2.4370
same,Log2FC dnaQ (DNA polymerase III subunit epsilon),[2]; vs untreated,2.6769
same,Log2FC dnaT (primosomal protein DnaT),[2]; vs untreated,1.8873
same,Log2FC dnaX (DNA polymerase III subunit gamma/tau),[2]; vs untreated,1.3272
same,Log2FC gyrA (DNA topoisomerase (ATP-hydrolyzing) subunit A),[2]; vs untreated,2.7733
same,Log2FC gyrB (DNA topoisomerase (ATP-hydrolyzing) subunit B),[2]; vs untreated,2.8529
same,Log2FC holB (DNA polymerase III subunit delta'),[2]; vs untreated,3.5242
same,Log2FC holC (DNA polymerase III subunit chi),[2]; vs untreated,1.8432
same,Log2FC holD (DNA polymerase III subunit psi),[2]; vs untreated,2.6144
same,Log2FC parC (DNA topoisomerase IV subunit A),[2]; vs untreated,2.5193
same,Log2FC parE (DNA topoisomerase IV subunit B),[2]; vs untreated,2.3205
same,Log2FC priA (primosomal protein N'),[2]; vs untreated,3.3285
same,Log2FC priB (primosomal replication protein N),[2]; vs untreated,5.8981
same,Log2FC priC (primosomal replication protein N''),[2]; vs untreated,2.6334
same,Log2FC recA (recombinase RecA),[2]; vs untreated,5.7854
same,Log2FC recB (exodeoxyribonuclease V subunit beta),[2]; vs untreated,2.0328
same,Log2FC recC (exodeoxyribonuclease V subunit gamma),[2]; vs untreated,2.4556
same,Log2FC recF (DNA replication/repair protein RecF),[2]; vs untreated,1.6106
same,Log2FC recG (ATP-dependent DNA helicase RecG),[2]; vs untreated,1.6673
same,Log2FC recJ (single-stranded-DNA-specific exonuclease RecJ),[2]; vs untreated,4.2947
same,Log2FC recO (DNA repair protein RecO),[2]; vs untreated,2.8669
same,Log2FC recR (recombination mediator RecR),[2]; vs untreated,2.2758
same,Log2FC ruvA (Holliday junction branch migration protein RuvA),[2]; vs untreated,3.9191
same,Log2FC ruvB (Holliday junction branch migration DNA helicase RuvB),[2]; vs untreated,4.1938
same,Log2FC ruvC (crossover junction endodeoxyribonuclease RuvC),[2]; vs untreated,2.7878
same,Log2FC ssb1 (single-stranded DNA-binding protein SSB1),[2]; vs untreated,3.2652
same,down-regulated genes,[2]; vs untreated,348 genes
same,up-regulated genes,[2]; vs untreated,2885 genes
same,differentially expressed genes,"[2]; vs untreated, P < 0.05, absolute log2 fold change > 1",3233 genes
same,Inhibition of DNA gyrase (%),[3]; 1× MIC,81.45 ± 1.33%
same,inhibitory effect on bacterial DNA gyrase in vitro,[3]; concentration not stated (Discussion),~ 90%
same,pKa,[4],12.48
